Reference: publication PMC8495692 (ACS Omega, 2021)
Marks after values point to notes of the source that are not given here.

Legend:
human IRAK4 = assay: IRAK4 kinase assay; type: biochemical; conditions: 10 μM compound; ATP 10 μM
human IRAK1 = human IRAK1 (Homo sapiens, UniProt P51617); assay: IRAK1 kinase assay; type: biochemical; conditions: for inhibition at 10 µM: read-out: % of kinase inhibition (mean), IRAK1, 10 μM compound
IRAK4 = conditions: read-out: IC50 against IRAK4; cited from earlier work
IRAK1 = conditions: read-out: IC50 against IRAK1; cited from earlier work
[1] = system: LPS-stimulated PMA-induced human THP-1 macrophages; assay: Cytokine production, CBA array beads with flow cytometry; type: cell-based; conditions: 1 μM, 24 h, compared to control DMSO
[2] = system: cells overexpressing IRAK1; assay: MTT cytotoxicity on cells overexpressing IRAK1; type: cell-based; conditions: Homo sapiens, read-out: IC50, toxicity on cells overexpressing IRAK1

Chain of human IRAK1 (P51617 whole entry): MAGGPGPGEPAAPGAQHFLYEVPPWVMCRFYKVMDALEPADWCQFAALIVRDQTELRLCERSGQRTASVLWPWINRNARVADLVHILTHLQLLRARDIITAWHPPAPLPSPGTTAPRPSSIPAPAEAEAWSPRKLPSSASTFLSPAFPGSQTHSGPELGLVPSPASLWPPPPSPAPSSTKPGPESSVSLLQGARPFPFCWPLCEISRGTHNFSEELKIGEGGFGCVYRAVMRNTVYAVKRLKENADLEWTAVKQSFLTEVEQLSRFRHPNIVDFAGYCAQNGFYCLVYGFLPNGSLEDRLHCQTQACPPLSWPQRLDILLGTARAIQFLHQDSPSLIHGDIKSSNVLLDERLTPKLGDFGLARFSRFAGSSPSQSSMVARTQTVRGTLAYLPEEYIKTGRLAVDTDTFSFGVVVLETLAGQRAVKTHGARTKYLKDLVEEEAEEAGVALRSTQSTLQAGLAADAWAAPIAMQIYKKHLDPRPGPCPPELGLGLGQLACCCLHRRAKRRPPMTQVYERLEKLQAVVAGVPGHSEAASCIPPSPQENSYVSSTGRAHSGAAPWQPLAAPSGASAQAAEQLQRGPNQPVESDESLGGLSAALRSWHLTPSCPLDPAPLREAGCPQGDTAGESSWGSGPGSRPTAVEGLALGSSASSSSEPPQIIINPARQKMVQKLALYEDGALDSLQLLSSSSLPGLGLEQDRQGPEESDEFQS

Structure (SMILES) | % of kinase inhibition (mean), IRAK4 (human IRAK4) | IC50 (human IRAK1) | inhibition at 10 µM (human IRAK1; ATP 10 μM) | other results
CC1=CC(=O)c2c(O)cccc2C1=O [plumbagin, 5-hydroxy-2-methyl-1,4-naphthoquinone] | 0% | 6330 nM | – | –
O=C1C=CC(=O)C=C1 [1,4-benzoquinone] | 0% | – | 20% | –
CC1=C(C/C=C(\C)CCC[C@H](C)CCC[C@H](C)CCCC(C)C)C(=O)c2ccccc2C1=O [phylloquinone (Vitamin K1), phylloquinone, reference compound] | 9% | – | 14% | –
O=C1C=CC(=O)c2c(O)cccc21 [juglone, 5-hydroxy-1,4-naphthoquinone] | 0% | – | 0% | –
CC(C)=CCC1=C(O)C(=O)c2ccccc2C1=O [lapachol, 2-hydroxy-3-(3-methyl-2-butenyl)-1,4-naphthoquinone] | 3% | – | 8% | –
C1=C/COCc2cc(ccc2OCCN2CCCC2)Nc2nccc(n2)-c2cccc(c2)COC/1 [pacritinib] | – | – | – | IC50 (IRAK4): 177 nM; IC50 (IRAK1): 6 nM
O=C1C=CC(=O)c2ccccc21 [1,4-naphthoquinone] | 10% | 914 nM | – | IL-8, IL-1β, and IL-10 levels in supernatant ([1]; p-value < 0.01): most downregulated; levels of most of measured cytokines (IL-1β, TNF-α, IL-10, IL-6, IL-8, IL-12β) in supernatant ([1]; p-value < 0.05): significant decrease; IC50 [2]: < 10000 nM
C=CC(=O)Nc1cccc(C(=O)Nc2ccc(NC(=O)c3cccc(-c4ccn[nH]4)n3)cc2)c1 [JH-X-119-01] | – | – | – | IC50 (IRAK4): > 10000 nM
CC1=CC(=O)c2ccccc2C1=O [menadione (Vitamin K3), menadione, reference compound] | 0% | 45100 nM | > 20% | % of kinase inhibition (mean), IRAK1 (human IRAK1; 10 μM compound, ATP 10 μM): 28 ^a %
Cc1cc(O)c2c(c1)C(=O)c1cc(O)cc(O)c1C2=O [emodin, 1,3,8-trihydroxy-6-methylanthraquinone] | 9% | 1430 nM | – | –
CC(C)=CCC(O)C1=CC(=O)c2c(O)ccc(O)c2C1=O (stereo not drawn) [shikonin, 5,8-dihydroxy-2-(1-hydroxy-4-methyl-3-pentenyl)-1,4-naphthoquinone] | 0% | 4530 nM | – | –
Oc1ccc(O)cc1 [hydroquinone] | 4% | – | 15% | –
CC1=CC(=O)C(C(C)C)=CC1=O [thymoquinone, 2-isopropyl-5-methyl-1,4-benzoquinone] | 0% | – | 5% | –
